Reference: patent US10053447B2, “Fluorescent compounds” (Pierce Biotechnology, Inc, priority 2010, dated 2018)

How the values were obtained:
[1] = Spectral properties of the dyes compared with commercially available dyes; assay type: physicochemical; settings: reactive ester form of the dye
[2] = system: IMR90 cells; assay: Direct fluorescence labeling of cell surface proteins; assay type: cell-based, human; settings: 6 μm, 3 μm, 1.5 μm, and 0.75 μm as printed; 30 min
Description: The inventive compounds and commercial dyes were evaluated in direct fluorescence labeling of cell surface proteins using the following protocol. DyLight 549-NHS, 550 Compound 1-NHS, and Whole Cell Stain Orange (Thermo Fisher Scientific) were reconstituted in DMF and diluted to 6 μM in Dulbecco's PBS (DPBS). A total of four 1:1 serial dilutions of the dyes were prepared in DPBS. Frozen IMR90 cells (human lung embryonic fibroblast) on a plate were thawed for 1 h at 37° C. The cell plates were washed two times with DPBS and incubated with dye dilutions for 30 min at room temperature protected from light. The cell plates were then washed three times with DPBS. The cell plates were incubated with 100 μl/well of 1 μg/ml Hoechst dye in DPBS. The cell plates were sealed and imaged using the Thermo Scientific ArrayScan VTI HCS Reader.
The inventive compounds and commercial dye were evaluated in direct fluorescence labeling of cell surface proteins. DyLight 649-NHS, 650 Compound 1-NHS, and Whole Cell Stain Orange (Thermo Fisher Scientific) were reconstituted in DMF and diluted to 6 μM in Dulbecco's PBS (DPBS). A total of four 1:1 serial dilutions of the dyes were prepared in DPBS. Frozen IMR90 cells (human lung embryonic fibroblast) on a plate were thawed for 1 h at 37° C. […] The cell plates were sealed and imaged using the Thermo Scientific ArrayScan VTI HCS Reader.

[3] = molecular target: T1, streptavidin (SA) (Streptomyces avidinii, UniProt P22629); assay: Labeling efficiency (degree of labeling, mole dye to mole protein ratio) of streptavidin; settings: SA, NHS ester, 5X molar excess
Description: Inventive and commercial compounds, each as the NHS ester, were conjugated to goat anti-mouse (GAM), goat anti-rabbit (GAR) antibodies, and streptavidin (SA). GAM, GAR, and SA, at 10 mg/ml in phosphate buffered saline (PBS), were dialyzed against 50 mM borate buffer, pH 8.5. The compounds were reconstituted in dimethylformamide (DMF) at 10 mg/ml and combined at 2×, 4×, 5×, 7.5×, or 10× molar excess with GAM, GAR, or SA for 2 h at room temperature to label the antibodies or SA.
The labeled compounds, also termed dyes or labels, were subjected to PDDR to remove the unlabeled (free) compound; 100 μl of the packed resin was used per mg of protein purified. The purified antibody-labeled dyes were then diluted 1:50 in PBS and scanned for absorbance from 700 nm to 230 nm to determine the protein concentration, and to determine the mole dye to mole protein ratio. Each conjugate was diluted 1:10 in 50% glycerol and heated in the presence of 10 mM dithiothreitol (DTT) for 5 min at 95° C., then separated by electrophoresis on polyacrylamide gels in the presence of sodium dodecyl sulfate (SDS-PAGE). The gels were scanned using the Typhoon 9400 Imager to verify removal of the unconjugated compound. Labeling efficiency was compared, with results showing degree of labeling below.
Compounds 1, 2, and 3, each as the NHS ester, and DyLight 649-NHS were conjugated to goat anti-mouse (GAM) and goat anti-rabbit (GAR) antibodies. GAM and GAR, at a concentration of 10 mg/ml in phosphate buffered saline (PBS), were dialyzed against 50 mM borate buffer, pH 8.5. The compounds were reconstituted in dimethylformamide (DMF) at 10 mg/ml. To label the antibodies, the compounds were added at 2.5× molar excess and 5× molar excess for 2 h at room temperature. Streptavidin (SA) was reconstituted in PBS buffer, pH 7.2, and 50 mM borate buffer, pH 8.5, and labeled with 2.5× molar excess and 4× molar excess of the compound.
The antibody-labeled compounds, also termed dyes or labels, were subjected to gel filtration chromatography (15 cm×0.8 cm columns) or to the PDDR to remove the unlabeled (free) compound; 100 μl of the packed resin was used per mg of protein purified. The purified antibody-labeled dyes were then diluted 1:100 in PBS and scanned for absorbance from 700 nm to 230 nm to determine the protein concentration, and to determine the mole dye to mole protein ratio. Each conjugate was diluted 1:10 in 50% glycerol and heated in the presence of 10 mM dithiothreitol (DTT) for 5 min at 95° C., then separated by electrophoresis on polyacrylamide gels in the presence of sodium dodecyl sulfate (SDS-PAGE). The gels were scanned using the Typhoon 9400 Imager to verify removal of the unconjugated compound. Labeling efficiency was compared using labeling of the compounds to GAM antibody at a 2.5× molar excess of compound, with results shown below.
Labeling efficiency was also compared using labeling of the dyes to streptavidin (SA) at either a 2.5 fold or a 4 fold molar excess of the dye, with SA in PBS, pH 7.2, and borate buffer, pH 8.5.
650 Compound 1 (isomer 2)-TFP, 650 Compound 1 (isomer 1)-TFP, 650 Compound 1 (isomer 2)-TFP, 650 Compound 1-NHS, and DyLight 649-NHS were conjugated to GAM, GAR, and SA. GAM and GAR, at a concentration of 10 mg/ml in phosphate buffered saline (PBS), were dialyzed against 50 mM borate buffer, pH 8.5. The compounds were reconstituted in dimethylformamide (DMF) at 10 mg/ml and used to label antibodies at 5× molar excess of compound for two hours at room temperature to label the antibodies. SA was reconstituted in 50 mM borate buffer, pH 8.5, and combined with 4× molar excess to label the SA.
The antibody-conjugated and SA-conjugated compounds, also termed dyes or labels, were subjected to the PDDR to remove the unlabeled (free) compound. The purified antibodies and SA were then diluted 1:25 in PBS and scanned for absorbance from 700 nm to 230 nm to determine the protein concentration, and to determine the mole dye to mole protein ratio. […]

[4] = molecular target: T1, streptavidin (SA); assay: as above; settings: NHS ester, 3X molar excess

T1 sequence (P22629 25-183, species assumed): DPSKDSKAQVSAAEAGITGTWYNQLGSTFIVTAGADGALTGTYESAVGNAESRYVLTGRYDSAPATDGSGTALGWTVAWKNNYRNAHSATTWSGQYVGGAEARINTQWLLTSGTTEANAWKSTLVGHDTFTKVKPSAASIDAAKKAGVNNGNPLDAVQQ

Row | Molecule | Emission (Em) [1] | Excitation (Ex) [1] | ε [1] | Performance in direct fluorescence labeling of cell surface proteins [2] | D/P 5X [3] | D/P 3X [4]
1 | COCCN1/C(=C/C=C/C2=[N+](CCCCCC(=O)ON3C(=O)CCC3=O)c3ccc(S(=O)(=O)[O-])cc3C2(C)CCCS(=O)(=O)O)C(C)(CCCS(=O)(=O)O)c2cc(S(=O)(=O)O)ccc21 (centres unmarked) [550 Compound 1-NHS] | 572 nm | 557 nm | 142,000 M−1cm−1 | performed equivalently as DyLight 549-NHS | – | –
2 | Alexa 750-SA: Alexa 750 conjugated to streptavidin (SA) [reference compound] | – | – | – | – | 4.7 | 3.3
3 | DyLight 750-SA: DyLight 750 conjugated to streptavidin (SA) [reference compound] | – | – | – | – | 4.0 | 2.5
